Test results published in ChEMBL document CHEMBL4219160, “The discovery of novel diarylpyri(mi)dine derivatives with high level activity against a wide variety of HIV-1 strains as well as against HIV-2” (Bioorg Med Chem, 2018).
pEC50, pIC50: −log10 of the molar value.

What was measured:
[1] = test system: Human immunodeficiency virus 1; assay: Antiviral activity against HIV1 harboring reverse transcriptase Y188L mutant infected in human MT4 cells assessed as protection against virus-induced cytopathic effect after 5 days by MTT assay; format: functional, organism-based; details: Human immunodeficiency virus 1, MT4, 120 h
[2] = test system: Human immunodeficiency virus 1; assay: microbe, parasite or virus in culture; details: Human immunodeficiency virus 1, 3B, MT4, 120 h
Description: Antiviral activity against wild type HIV1 3B infected in human MT4 cells assessed as protection against virus-induced cytopathic effect after 5 days by MTT assay

[3] = target: Human immunodeficiency virus type 1 reverse transcriptase (Human immunodeficiency virus 1, UniProt Q72547, K103N/Y181C); assay: Inhibition of HIV1 reverse transcriptase K103N/Y181C double mutant using poly (A)/oligo (dT)15 as template/primer assessed as decrease in biotin-dUTP incorporation after 1 hr by ELISA
[4] = test system: Human immunodeficiency virus 1; assay: Antiviral activity against HIV1 harboring reverse transcriptase E138K mutant infected in human MT4 cells assessed as protection against virus-induced cytopathic effect after 5 days by MTT assay; format: functional, organism-based; details: Human immunodeficiency virus 1, MT4, 120 h
in vitro = details: human, MT4 cells
Description: Selectivity index, ratio of CC50 for human MT4 cells to EC50 for wild type HIV1 3B infected in human MT4 cells

[5] = test system: Human immunodeficiency virus 1; assay: Antiviral activity against HIV1 harboring reverse transcriptase F227L/V106A double mutant infected in human MT4 cells assessed as protection against virus-induced cytopathic effect after 5 days by MTT assay; format: functional, organism-based; details: Human immunodeficiency virus 1, MT4, 120 h
[6] = Cytotoxicity against human MT4 cells assessed as reduction in cell viability after 5 days by MTT assay; format: cell-based
[7] = test system: Human immunodeficiency virus 2; assay: Antiviral activity against HIV2 ROD infected in human MT4 cells assessed as protection against virus-induced cytopathic effect after 5 days by MTT assay; format: functional, organism-based; details: Human immunodeficiency virus 2, ISOLATE ROD, MT4, 120 h
[8] = target: Human immunodeficiency virus type 1 reverse transcriptase (Human immunodeficiency virus 1, UniProt Q72547); assay: Inhibition of wild type HIV1 reverse transcriptase using poly (A)/oligo (dT)15 as template/primer assessed as decrease in biotin-dUTP incorporation after 1 hr by ELISA
[9] = test system: Human immunodeficiency virus 1; assay: Antiviral activity against HIV1 harboring reverse transcriptase Y181C mutant infected in human MT4 cells assessed as protection against virus-induced cytopathic effect after 5 days by MTT assay; format: functional, organism-based; details: Human immunodeficiency virus 1, MT4, 120 h
[10] = test system: Human immunodeficiency virus 1; assay: Antiviral activity against HIV1 harboring reverse transcriptase L100I mutant infected in human MT4 cells assessed as protection against virus-induced cytopathic effect after 5 days by MTT assay; format: functional, organism-based; details: Human immunodeficiency virus 1, MT4, 120 h
[11] = test system: Human immunodeficiency virus 1; assay: Antiviral activity against HIV1 harboring reverse transcriptase K103N mutant infected in human MT4 cells assessed as protection against virus-induced cytopathic effect after 5 days by MTT assay; format: functional, organism-based; details: Human immunodeficiency virus 1, MT4, 120 h
[12] = test system: Human immunodeficiency virus 1; assay: Antiviral activity against HIV1 harboring reverse transcriptase RES056 double mutant infected in human MT4 cells assessed as protection against virus-induced cytopathic effect after 5 days by MTT assay; format: functional, organism-based; details: Human immunodeficiency virus 1, MT4, 120 h

Row | SMILES | pEC50 [1] | pEC50 [2] | pIC50 [3] | pEC50 [4] | selectivity ratio (in vitro) | pEC50 [5] | CC50 at 120 h [6] | pEC50 [7] | pIC50 [8] | pEC50 [9] | pEC50 [10] | pEC50 [11] | pEC50 [12]
1 | Cc1cc(/C=C/C#N)cc(C)c1Oc1cc(NCCN2CCN(C)CC2)nc(Nc2ccc(C#N)cc2)c1 | < 5.10 | 7.61 | 5.20 | 6.11 | 321 | 5.24 | 7960 nM | < 5.10 | 5.66 | 5.84 | 5.69 | 7.55 | 5.88
2 | C=CCNc1cc(Oc2c(C)cc(/C=C/C#N)cc2C)cc(Nc2ccc(C#N)cc2)n1 | < 4.09 | 8.00 | 4.50 | 7.37 | 8220 | ≤ 4.24 | 82100 nM | < 4.09 | 6.57 | 5.96 | 6.20 | 7.57 | 4.52
3 | Cc1cc(/C=C/C#N)cc(C)c1Oc1cc(NCCC#N)nc(Nc2ccc(C#N)cc2)n1 | 7.51 | 8.87 | 7.00 | 8.19 | 736 | 6.72 | 1000 nM | 6.49 | 7.70 | 8.00 | 7.96 | 8.92 | 7.85
4 | COCCNc1cc(Oc2c(C)cc(/C=C/C#N)cc2C)nc(Nc2ccc(C#N)cc2)n1 | 7.29 | 8.81 | 6.64 | 8.19 | 2040 | 6.66 | 3190 nM | 5.81 | 7.40 | 8.03 | 8.03 | 8.77 | 7.38
5 | C=CCNc1cc(Oc2c(C)cc(/C=C/C#N)cc2C)nc(Nc2ccc(C#N)cc2)n1 | 7.25 | 8.82 | 6.72 | 8.36 | 2000 | 6.28 | 3050 nM | < 5.52 | 7.52 | 7.89 | 7.68 | 8.32 | 7.36
6 | Cc1cc(/C=C/C#N)cc(C)c1Oc1cc(NCCN2CCOCC2)nc(Nc2ccc(C#N)cc2)c1 | < 4.36 | 8.77 | 5.20 | 7.11 | 25600 | 5.35 | 43200 nM | < 4.38 | 6.13 | 6.66 | 6.62 | 8.77 | 6.37
7 | Cc1cc(/C=C/C#N)cc(C)c1Oc1cc(Cl)nc(Nc2ccc(C#N)cc2)c1 | < 3.51 | 8.11 | – | 7.37 | > 39900 | < 3.51 | > 312000 nM | < 3.51 | 6.74 | 5.93 | 6.15 | 7.48 | < 3.51
8 | Cc1cc(/C=C/C#N)cc(C)c1Oc1cc(NCCCN2CCOCC2)nc(Nc2ccc(C#N)cc2)c1 | ≤ 5.33 | 8.32 | 5.11 | 6.96 | ≥ 992 | 5.30 | ≥ 4720 nM | ≤ 5.33 | 6.01 | 6.12 | 6.28 | 8.25 | 6.15
9 | COC(CNc1cc(Oc2c(C)cc(/C=C/C#N)cc2C)nc(Nc2ccc(C#N)cc2)n1)OC | – | – | – | – | – | – | 3470 nM | – | 6.77 | – | – | – | –
10 | Cc1cc(/C=C/C#N)cc(C)c1Oc1cc(Nc2ccc(C#N)cc2)nc(NC2CC2)c1 | < 4.61 | 8.47 | 5.27 | 7.57 | 7400 | 5.27 | 24800 nM | < 4.61 | 6.46 | 6.68 | 6.77 | 8.10 | 5.55
11 | COCCNc1cc(Oc2c(C)cc(/C=C/C#N)cc2C)cc(Nc2ccc(C#N)cc2)n1 | 4.38 | 8.20 | 4.74 | 7.24 | 9330 | 4.65 | 58200 nM | < 4.24 | 6.04 | 5.86 | 6.13 | 7.55 | 5.32
12 | Cc1cc(/C=C/C#N)cc(C)c1Oc1cc(NCC2CCCO2)nc(Nc2ccc(C#N)cc2)c1 (stereo not drawn) | < 4.13 | 7.54 | 4.39 | 6.77 | 2560 | < 4.13 | 73600 nM | < 4.13 | 6.20 | 5.34 | 5.59 | 7.32 | 4.50
13 | Cc1cc(/C=C/C#N)cc(C)c1Oc1cc(NCCN(C)C)nc(Nc2ccc(C#N)cc2)c1 | < 5.37 | 8.72 | 5.61 | 6.01 | 2240 | < 5.37 | 4270 nM | < 5.37 | 6.08 | 6.74 | 6.72 | 8.57 | 6.64
14 | O=C1Nc2ccc(Cl)cc2[C@@](C#CC2CC2)(C(F)(F)F)O1 [EFAVIRENZ] | 6.89 | – | – | 7.31 | – | 6.92 | > 6340 nM | – | – | 8.22 | 7.33 | 6.96 | 6.96
15 | Cc1cc(C#N)cc(C)c1Oc1nc(Nc2ccc(C#N)cc2)nc(N)c1Br [ETRAVIRINE] | 7.68 | – | – | – | – | 7.62 | – | – | – | 7.70 | 8.00 | – | 7.59
16 | Cc1ccnc2c1NC(=O)c1cccnc1N2C1CC1 [NEVIRAPINE] | – | 6.90 | – | 6.55 | – | – | > 15000 nM | – | – | – | 5.49 | 4.99 | < 4.82
17 | Cc1cn([C@H]2C[C@H](N=[N+]=[N-])[C@@H](CO)O2)c(=O)[nH]c1=O [ZIDOVUDINE] | – | 7.94 | – | 7.74 | > 658 | – | > 7480 nM | 8.09 | – | 8.22 | – | – | 7.92
